{"source": "patent US20210212934A1", "about": "“METHODS FOR PROVIDING LONG-LASTING ANESTHETIC EFFECT USING MICROPARTICLES” (priority 2007, published 2021)", "test": "In vitro lidocaine release from microparticles (dialysis tube, water, 37° C., UV 214 nm)", "assay_type": "physicochemical", "description": "Microparticle batches in an amount of 100 mg were placed in a dialysis tube (high retention seamless cellulose tubing; 23 mm×15 mm. MW cut-off 05173; Sigma Aldrich). The tube was then placed in a 30 ml glass vial containing 10 ml of deionized ultra-filtered water (Fisher Scientific). Vials were placed in a reciprocating shaking bath (Reciprocating Shaking Bath Model 50; Precision Scientific) with the temperature adjusted to 37° C., and shaking speed of 100 rpm. […] The entire 10 ml of dissolution medium was replaced with fresh medium at each sampling time interval. Dilution of 0.1 ml of the withdrawn sample was diluted to 10 ml of water in clean culture tubes of borosilicate glass (Pyrex). […] Two samples per microparticle batch were measured for drug release and triplicate samples were prepared for each release interval for UV-absorbance.", "data": [{"molecule": "CCN(CC)CC(=O)Nc1c(C)cccc1C", "note": "[lidocaine free base, lidocaine]", "values": [{"measurement": "time of peak of release", "setting": "in vitro release profile, single peak", "result": "about one"}, {"measurement": "time at which release falls below minimum required level (5.6%)", "setting": "in vitro release, point 10", "result": 2.5, "unit": "days"}, {"measurement": "time at which drug is \"exhausted\"", "setting": "in vitro release, time point 11", "result": 3, "unit": "days"}, {"measurement": "peak of lidocaine release", "setting": "in vitro, % released at peak at about one day", "result": 18, "unit": "%"}]}]}
